Results from patent US4163801A, “Treatment of animals with 2,6-bis(2-hydroxybenzyl)phenols to eradicate trematodes” (ICI Australia Limited, priority 1976, dated 1979).

Key:
[1] = tested on: sheep liver fluke (Fasciola hepatica); assay: Flukicidal activity in sheep infected with sheep liver fluke: faecal egg count and post mortem adult fluke count after single dose (Table II); type: in vivo; details: for Post Mortem Results: No of adult fluke: sheep liver; for Faecal Egg Count: sheep
Experimental: Compositions suitable for use as experimental aqueous oral drenches were prepared in the following general manner. A mixture of the required amount of active ingredient was mixed with 40 ml of an aqueous 0.25% w/w solution of "Lubrol E" ("Lubrol E" is a Registered Trade Mark for an octylphenol ethoxylate). The mixture was ball-milled for 30 minutes and the resultant suspension was used as an aqueous drench.
Compositions suitable for use as experimental injectable solutions were prepared by dissolving the chemical in propylene glycol and adjusting the concentration to 10% w/v active ingredient.
Compositions prepared by the methods of Examples 21 and 22 were used as a single dose to test sheep infected with sheep liver fluke (Fasciola hepatica). The number of liver fluke eggs in the faeces was measured at the time of treatment and at selected intervals up to 14 days after treatment. The sheep were killed on day 14 and the number of adult fluke in the liver counted. The amount and structure of active ingredient in each composition and the results of treatment of a sheep with that composition are given in the Table II below. The compositions were administered either by oral drench (oral) or by sub-cutaneous injection (s/c).

immature fluke = assay: Effectiveness against immature fluke (Table II footnotes); type: in vivo, Fasciola hepatica; details: oral route

Oc1c(Br)cc(F)cc1Cc1cc(Cl)cc(Cc2cc(F)cc(Br)c2O)c1O [Compound 2, 2,6-bis(3-bromo-5-fluoro-2-hydroxybenzyl)-4-chlorophenol]
Post Mortem Results: No of adult fluke ([1]; 3.1 mg/kg oral, killed day 14): 0 | Post Mortem Results: No of adult fluke ([1]; 6.5 mg/kg oral, killed day 14): 0 | Post Mortem Results: No of adult fluke ([1]; 12.5 mg/kg oral, killed day 14): 0 | Post Mortem Results: No of adult fluke ([1]; 12.5 mg/kg s/c, killed day 14): 0 | Faecal Egg Count ([1]; 3.1 mg/kg oral, day 7): 20 Eggs per g faeces | Faecal Egg Count ([1]; 3.1 mg/kg oral, day 14): 0 Eggs per g faeces | Faecal Egg Count ([1]; 6.5 mg/kg oral, day 7): 40 Eggs per g faeces | Faecal Egg Count ([1]; 6.5 mg/kg oral, day 14): 0 Eggs per g faeces | Faecal Egg Count ([1]; 12.5 mg/kg oral, day 2): 130 Eggs per g faeces | Faecal Egg Count ([1]; 12.5 mg/kg oral, day 7): 0 Eggs per g faeces | Faecal Egg Count ([1]; 12.5 mg/kg oral, day 13): 0 Eggs per g faeces | Faecal Egg Count ([1]; 12.5 mg/kg s/c, day 3): 3800 Eggs per g faeces | Faecal Egg Count ([1]; 12.5 mg/kg s/c, day 7): 0 Eggs per g faeces | Faecal Egg Count ([1]; 12.5 mg/kg s/c, day 14): 0 Eggs per g faeces

Oc1c(Br)cc(Cl)cc1Cc1cc(F)cc(Cc2cc(Cl)cc(Br)c2O)c1O [Compound 4, 2,6-bis(3-bromo-5-chloro-2-hydroxybenzyl)-4-fluorophenol]
Post Mortem Results: No of adult fluke ([1]; 1.0 mg/kg oral, killed day 14): 0 | Post Mortem Results: No of adult fluke ([1]; 2.0 mg/kg s/c, killed day 14): 0 | Post Mortem Results: No of adult fluke ([1]; 3.1 mg/kg oral, killed day 14): 0 | Post Mortem Results: No of adult fluke ([1]; 6.3 mg/kg oral, killed day 14): 0 | Post Mortem Results: No of adult fluke ([1]; 12.5 mg/kg oral, Day 29): 0 | Faecal Egg Count ([1]; 2.0 mg/kg s/c, day 7): 20 Eggs per g faeces | Faecal Egg Count ([1]; 2.0 mg/kg s/c, day 14): 0 Eggs per g faeces | Faecal Egg Count ([1]; 3.1 mg/kg oral, day 2): 0 Eggs per g faeces | Faecal Egg Count ([1]; 3.1 mg/kg oral, day 7): 10 Eggs per g faeces | Faecal Egg Count ([1]; 3.1 mg/kg oral, day 14): 0 Eggs per g faeces | Faecal Egg Count ([1]; 6.3 mg/kg oral, day 2): 70 Eggs per g faeces | Faecal Egg Count ([1]; 6.3 mg/kg oral, day 7): 0 Eggs per g faeces | Faecal Egg Count ([1]; 12.5 mg/kg oral, day 2): 2520 Eggs per g faeces | Faecal Egg Count ([1]; 12.5 mg/kg oral, day 7): 200 Eggs per g faeces | Faecal Egg Count ([1]; 12.5 mg/kg oral, day 14): 0 Eggs per g faeces | effective against immature fluke (immature fluke; 5.0 mg/kg): 49% | effective against immature fluke (immature fluke; 7.5 mg/kg): 85% | effective against immature fluke (immature fluke; 10 mg/kg): 98%

O=[N+]([O-])c1cc(Cl)cc(Cc2cc(Cl)cc(Cc3cc(Cl)cc([N+](=O)[O-])c3O)c2O)c1O [Compound 9, 2,6-Bis(5-chloro-2-hydroxy-3-nitrobenzyl)-4-chlorophenol]
Post Mortem Results: No of adult fluke ([1]; 12.5 mg/kg s/c, killed day 14): 3 | Faecal Egg Count ([1]; 12.5 mg/kg s/c, day 7): 0 Eggs per g faeces | Faecal Egg Count ([1]; 12.5 mg/kg s/c, day 14): 10 Eggs per g faeces

Oc1c(Br)cc(Br)cc1Cc1cc(Cl)cc(Cc2cc(Br)cc(Br)c2O)c1O [Compound 11]
Post Mortem Results: No of adult fluke ([1]; 12.5 mg/kg oral, killed day 14): 12 | Faecal Egg Count ([1]; 12.5 mg/kg oral, day 7): 130 Eggs per g faeces | Faecal Egg Count ([1]; 12.5 mg/kg oral, day 14): 40 Eggs per g faeces

Oc1c(Br)cc(Cl)cc1Cc1cc(Cl)cc(Cc2cc(Cl)cc(Br)c2O)c1O [Compound 12]
Post Mortem Results: No of adult fluke ([1]; 4.0 mg/kg oral, killed day 14): 0 | Post Mortem Results: No of adult fluke ([1]; 12.5 mg/kg oral, killed day 14): 0 | Faecal Egg Count ([1]; 4.0 mg/kg oral, day 7): 0 Eggs per g faeces | Faecal Egg Count ([1]; 4.0 mg/kg oral, day 14): 0 Eggs per g faeces | Faecal Egg Count ([1]; 12.5 mg/kg oral, day 7): 40 Eggs per g faeces | Faecal Egg Count ([1]; 12.5 mg/kg oral, day 14): 0 Eggs per g faeces

Oc1c(Br)cc(Br)cc1Cc1cc(F)cc(Cc2cc(Br)cc(Br)c2O)c1O [Compound 14]
Post Mortem Results: No of adult fluke ([1]; 4.0 mg/kg oral, killed day 14): 1 | Post Mortem Results: No of adult fluke ([1]; 12.5 mg/kg oral, killed day 14): 0 | Faecal Egg Count ([1]; 4.0 mg/kg oral, day 7): 0 Eggs per g faeces | Faecal Egg Count ([1]; 4.0 mg/kg oral, day 14): 0 Eggs per g faeces | Faecal Egg Count ([1]; 12.5 mg/kg oral, day 7): 60 Eggs per g faeces | Faecal Egg Count ([1]; 12.5 mg/kg oral, day 14): 0 Eggs per g faeces

Oc1c(Cl)cc(F)cc1Cc1cc(Cl)cc(Cc2cc(F)cc(Cl)c2O)c1O [Compound 17]
Post Mortem Results: No of adult fluke ([1]; 12.5 mg/kg oral, killed day 14): 2 | Faecal Egg Count ([1]; 12.5 mg/kg oral, day 7): 150 Eggs per g faeces | Faecal Egg Count ([1]; 12.5 mg/kg oral, day 14): 20 Eggs per g faeces | Faecal Egg Count ([1]; 12.5 mg/kg oral, day 18): 20 Eggs per g faeces

Oc1c(Cl)cc(Cl)cc1Cc1cc(F)cc(Cc2cc(Cl)cc(Cl)c2O)c1O [Compound 18, 2,6-bis(3,5-dichloro-2-hydroxybenzyl)-4-fluorophenol]
Post Mortem Results: No of adult fluke ([1]; 12.5 mg/kg oral, killed day 14): 0 | Faecal Egg Count ([1]; 12.5 mg/kg oral, day 7): 0 Eggs per g faeces | Faecal Egg Count ([1]; 12.5 mg/kg oral, day 14): 0 Eggs per g faeces

Oc1c(Br)cc(F)cc1Cc1cc(F)cc(Cc2cc(F)cc(Br)c2O)c1O [Compound 22]
Post Mortem Results: No of adult fluke ([1]; 6.3 mg/kg oral, killed day 14): 0 | Post Mortem Results: No of adult fluke ([1]; 12.5 mg/kg oral, killed day 14): 0 | Faecal Egg Count ([1]; 6.3 mg/kg oral, day 7): 0 Eggs per g faeces | Faecal Egg Count ([1]; 6.3 mg/kg oral, day 14): 0 Eggs per g faeces | Faecal Egg Count ([1]; 12.5 mg/kg oral, day 7): 1340 Eggs per g faeces | Faecal Egg Count ([1]; 12.5 mg/kg oral, day 14): 0 Eggs per g faeces

Oc1c(I)cc(F)cc1Cc1cc(Cl)cc(Cc2cc(F)cc(I)c2O)c1O [Compound 24]
Post Mortem Results: No of adult fluke ([1]; 12.5 mg/kg oral, killed day 14): 0 | Faecal Egg Count ([1]; 12.5 mg/kg oral, day 7): 20 Eggs per g faeces | Faecal Egg Count ([1]; 12.5 mg/kg oral, day 14): 0 Eggs per g faeces

Oc1c(Br)cc(F)cc1Cc1cc(Br)cc(Cc2cc(F)cc(Br)c2O)c1O [Compound 25]
Post Mortem Results: No of adult fluke ([1]; 12.5 mg/kg oral, killed day 14): 0 | Faecal Egg Count ([1]; 12.5 mg/kg oral, day 7): 0 Eggs per g faeces | Faecal Egg Count ([1]; 12.5 mg/kg oral, day 14): 0 Eggs per g faeces

Oc1c(I)cc(Cl)cc1Cc1cc(F)cc(Cc2cc(Cl)cc(I)c2O)c1O [Compound 29]
Post Mortem Results: No of adult fluke ([1]; 6.3 mg/kg oral, killed day 14): 0 | Post Mortem Results: No of adult fluke ([1]; 12.5 mg/kg oral, killed day 14): 0 | Faecal Egg Count ([1]; 6.3 mg/kg oral, day 7): 0 Eggs per g faeces | Faecal Egg Count ([1]; 6.3 mg/kg oral, day 14): 0 Eggs per g faeces | Faecal Egg Count ([1]; 12.5 mg/kg oral, day 7): 10 Eggs per g faeces | Faecal Egg Count ([1]; 12.5 mg/kg oral, day 14): 0 Eggs per g faeces | effective against immature fluke (immature fluke; 10 mg/kg): 81%

CC(c1cc(Cl)cc(Cl)c1O)c1cc(F)cc(Cc2cc(Cl)cc(Br)c2O)c1O (stereo not drawn) [Compound 30, 2-(3-Bromo-5chloro-2-hydroxybenzyl)-6-[1-(3,5-dichloro-2-hydroxyphenyl)ethyl]-4-fluorophenol]
Post Mortem Results: No of adult fluke ([1]; 12.5 mg/kg oral, killed day 14): 0 | Faecal Egg Count ([1]; 12.5 mg/kg oral, day 7): 0 Eggs per g faeces | Faecal Egg Count ([1]; 12.5 mg/kg oral, day 14): 0 Eggs per g faeces

CC(=O)Oc1c(Cc2cc(Cl)cc(Br)c2O)cc(F)cc1Cc1cc(Cl)cc(Br)c1O [Compound 31]
Post Mortem Results: No of adult fluke ([1]; 12.5 mg/kg oral, killed day 14): 0 | Faecal Egg Count ([1]; 12.5 mg/kg oral, day 7): 220 Eggs per g faeces | Faecal Egg Count ([1]; 12.5 mg/kg oral, day 14): 10 Eggs per g faeces

Oc1c(I)cc(F)cc1Cc1cc(F)cc(Cc2cc(F)cc(I)c2O)c1O [Compound 38]
Post Mortem Results: No of adult fluke ([1]; 6.3 mg/kg oral, killed day 14): 0 | Faecal Egg Count ([1]; 4.0 mg/kg oral, day 7): 50 Eggs per g faeces | Faecal Egg Count ([1]; 4.0 mg/kg oral, day 14): 80 Eggs per g faeces | Faecal Egg Count ([1]; 6.3 mg/kg oral, day 7): 190 Eggs per g faeces | Faecal Egg Count ([1]; 6.3 mg/kg oral, day 14): 0 Eggs per g faeces

CC(c1cc(F)cc(Br)c1O)c1cc(Cl)cc(Cc2cc(F)cc(Br)c2O)c1O (stereo not drawn) [Compound 39]
Post Mortem Results: No of adult fluke ([1]; 3.0 mg/kg oral, killed day 14): 0 | Post Mortem Results: No of adult fluke ([1]; 6.0 mg/kg oral, killed day 14): 0 | Faecal Egg Count ([1]; 3.0 mg/kg oral, day 7): 210 Eggs per g faeces | Faecal Egg Count ([1]; 3.0 mg/kg oral, day 14): 0 Eggs per g faeces | Faecal Egg Count ([1]; 6.0 mg/kg oral, day 7): 60 Eggs per g faeces | Faecal Egg Count ([1]; 6.0 mg/kg oral, day 14): 0 Eggs per g faeces

CC(c1cc(F)cc(Br)c1O)c1cc(Cl)cc(C(C)c2cc(F)cc(Br)c2O)c1O (stereo not drawn) [Compound 40, 2,6-Bis[1-(3-bromo-5-fluoro-2-hydroxyphenyl)ethyl]-4-chlorophenol]
Post Mortem Results: No of adult fluke ([1]; 12.5 mg/kg oral, killed day 14): 11 | Faecal Egg Count ([1]; 12.5 mg/kg oral, day 7): 0 Eggs per g faeces | Faecal Egg Count ([1]; 12.5 mg/kg oral, day 14): 0 Eggs per g faeces

CC(c1cc(Cl)cc(Cl)c1O)c1cc(F)cc(Cc2cc(F)cc(Br)c2O)c1O (stereo not drawn) [Compound 46]
Post Mortem Results: No of adult fluke ([1]; 12.5 mg/kg oral, killed day 14): 0 | Faecal Egg Count ([1]; 12.5 mg/kg oral, day 7): 0 Eggs per g faeces | Faecal Egg Count ([1]; 12.5 mg/kg oral, day 14): 0 Eggs per g faeces
